Results: US4279904A, “3-Amino-1-benzoxepine derivatives and their salts and pharmaceutical compositions thereof” (Kali-Chemie Pharma GmbH, priority 1979, dated 1981)

Tests used:
gastric peristalsis = experiment: Testing of the Gastric Peristalsis (gastric pressure waves, narcotized rats); type: in vivo, rat; details: before vs after administration; for inhibition in vivo at 20 mg/kg: Rattus norvegicus, ip, read-out: Frequency Decrease in %; for Factor of the Increase in Amplitude: i.p., 20 mg/kg
Excerpt: To determine the functioning of the gastric peristalsis, rats weighing about 200 g are narcotized by means of ketamine hydrochloride and xylazine. A catheter is introduced into the Vena jugularis of the narcotized rats and a tracheal catheter into the trachea. A stomach probe is inserted into their stomach and tied thereto. The probe is connected via a three-way cock with a Statham pressure imparting device (P 23 DB). The stomach is sealed off by a ligature at the pylorus and at the cardia. The stomach is filled with 3 ml of an 0.9% aqueous sodium chloride solution. The pressure waves produced by the stomach are continuously registered by a suitable recording device such as by a Watanabe Multicorder (MC 641). In order to determine the effect of the compounds to be tested, they are dissolved in physiological sodium chloride solution or are suspended in Tylose MH 50 solution. Said solutions or suspensions are administered intraperitoneally to the rats in a dose of 20 mg/kg. The amplitudes and frequencies of the pressure wave-like movements of the stomach as they occur before and after administration of the compound to be tested, are compared.
This effect in combination with a pronounced decrease in the frequencies of varying magnitude results in an improved food passage through the stomach.

[1] = Determination of the Acute Toxicity (acute seven-day toxicity); details: mouse, in vivo, ip, fasting white NMRI mouse, single i.p. dose
Experimental: The acute seven-day toxicity is determined by intraperitoneal administration of a single dose of the respective compound to a fasting white NMRI mouse. The LD50 -values are calculated via electronic data processing by a probit analysis as described in the book "Grundbegriffe der Biometrie" (Basic Biometrical Definitions) by L. Cavalli-Sforza, page 153 et seq., published by Gustav Fischer Verlag, Stuttgart, 1964.

CN(C)CCCNC1COc2ccccc2C(=O)C1 (racemic) [Compound 4, rac.-3-(γ-dimethylamino-propylamino)-3,4-dihydro-1-benzoxepin-5(2H)-one]
inhibition in vivo at 20 mg/kg (gastric peristalsis): 25%
Factor of the Increase in Amplitude (gastric peristalsis): 3.7
LD50 at 168 h [1]: 272 mg/kg

CC(C)NC1COc2ccccc2C(=O)C1 (racemic) [Compound 2, rac.-3-isopropylamino-3,4-dihydro-1-benzoxepin-5(2H)-one]
inhibition in vivo at 20 mg/kg (gastric peristalsis): 16%
Factor of the Increase in Amplitude (gastric peristalsis): 2.6
LD50 at 168 h [1]: 183 mg/kg

CC(C)N[C@@H]1COc2ccccc2[C@H](O)C1 (relative stereo) [C]
inhibition in vivo at 20 mg/kg (gastric peristalsis): 13%

CN[C@@H]1COc2ccccc2[C@H](O)C1 (relative stereo) [A]
LD50 at 168 h [1]: 342 mg/kg

CN(C)C1COc2ccccc2C(=O)C1 (racemic) [Compound 5, rac.-3-dimethylamino-3,4-dihydro-1-benzoxepin-5(2H)-one]
inhibition in vivo at 20 mg/kg (gastric peristalsis): 12%
Factor of the Increase in Amplitude (gastric peristalsis): 1.3
LD50 at 168 h [1]: 285 mg/kg

CN(C)[C@@H]1COc2ccccc2[C@H](O)C1 (relative stereo) [O]
inhibition in vivo at 20 mg/kg (gastric peristalsis): 7%

CCN(CC)[C@@H]1COc2ccccc2[C@H](O)C1 (relative stereo) [F]
LD50 at 168 h [1]: 183 mg/kg

O[C@@H]1C[C@H](NCc2ccccc2)COc2ccccc21 (relative stereo) [D]
inhibition in vivo at 20 mg/kg (gastric peristalsis): 21%
LD50 at 168 h [1]: 92 mg/kg

O=C1CC(NCc2ccccc2)COc2ccccc21 (racemic) [Compound 3, rac.-3-benzylamino-3,4-dihydro-1-benzoxepin-5(2H)-one]
inhibition in vivo at 20 mg/kg (gastric peristalsis): 7%
Factor of the Increase in Amplitude (gastric peristalsis): 3.6
LD50 at 168 h [1]: 253 mg/kg

O[C@@H]1C[C@H](N2CCCC2)COc2ccccc21 (relative stereo) [K]
inhibition in vivo at 20 mg/kg (gastric peristalsis): 10%

CNC1COc2ccccc2C(=O)C1 (racemic) [Compound 1, rac.-3-methylamino-3,4-dihydro-1-benzoxepin-5(2H)-one]
inhibition in vivo at 20 mg/kg (gastric peristalsis): 8%
Factor of the Increase in Amplitude (gastric peristalsis): 1.6
LD50 at 168 h [1]: 137 mg/kg

CN(C)CCCNC1COc2ccc(Cl)cc2C(=O)C1 (racemic) [Compound 6, rac.-3-(γ-dimethylamino-propylamino)-7-chloro-3,4-dihydro-1-benzoxepin-5(2H)-one]
inhibition in vivo at 20 mg/kg (gastric peristalsis): 29%
Factor of the Increase in Amplitude (gastric peristalsis): 3.4
LD50 at 168 h [1]: 296 mg/kg

CN(C)CCCN[C@@H]1COc2ccccc2[C@H](O)C1 (relative stereo) [E]
inhibition in vivo at 20 mg/kg (gastric peristalsis): 32%
LD50 at 168 h [1]: 664 mg/kg

CCCCNC1COc2ccccc2C(=O)C1 (racemic) [Compound 7, rac.-3-(n-butylamino)-3,4-dihydro-1-benzoxepin-5(2H)-one]
inhibition in vivo at 20 mg/kg (gastric peristalsis): 28%
Factor of the Increase in Amplitude (gastric peristalsis): 6.6
